Reference: patent publication US11376271B1, “Methods of ameliorating the effects of alcoholic liver damage” (FULGENT LIFE INC., priority 2021, dated 2022)

Assays:
male C57BL/6J mice [1] = assay: Liver MDA and SOD after acute alcohol ingestion; type: in vivo; details: 500 mg/kg intragastric 15 min prior to 8 ml/kg ethanol; liver 6 h after alcohol
Method: Six hours after treatment with alcohol, liver tissues were taken for determination of MDA and SOD. Liver samples were prepared with homogenization in cold isotonic saline. The homogenate (10%, w/v) was centrifuged at 4500 g for 10 minutes and the supernatant was used for biochemical analysis. The MDA, SOD and TG levels were determined with commercial kits (Abcam, #ab118970; Thermofisher, #EIASODC and Abcam, ab65336) according to the manufacturer's instructions. The results were normalized to the total protein determined by BCA Protein Assay Kit (Abcam, #ab102536) according to the manufacturer's instructions.

hepatocyte AML12 cells = assay: NADH dose-response and time course of NAD+ levels in AML12 cells; type: cell-based
Method: Also, cells were cultured as follows.
A dose-response curve was also determined for hepatocyte AML12 cells. These cells were treated with rising concentrations of NADH for 3 h. […] (n=3). *, p<0.01; **, p<0.001 vs Control.
Time course studies for NADH action were also carried out. AML12 cells were incubated with NADH for various incubation times (0-12 hr) and then harvested, and the NAD+ levels were assessed. […] (n=3). *, p<0.01; **, p<0.001 vs Control.

male C57BL/6J mice [2] = assay: Liver histopathology by Oil Red O staining; type: in vivo; details: 500 mg/kg intragastric 15 min prior to 8 ml/kg ethanol
Method: Liver histopathology was detected by Oil Red 0 staining. According to the standard operating procedure, some liver tissues were fixed for histopathological assessment. The other part of the liver was stored at −80° C. […] frozen sections were stained with Oil Red 0 to detect liver steatosis. The stained sections were examined by a 400× optical microscope. The level of VLDL in serum samples was examined with a Bio-Tek synergy2 Multiscan Spectrum (Botten Instruments Co.).

male C57BL/6J mice [3] = assay: Liver NAD+/NADH ratio after ethanol administration; type: in vivo; details: 500 mg/kg intragastric 15 min before 8 ml/kg ethanol (40% w/v)
Method: The ratio of NAD^+/NADH in the liver was then measured at different times after ethanol administration. The NAD^+/NADH ratios were detected using a NAD+/NADH Quantification Colorimetric Kit (ABIN411692) in compliance with the manufacturer's instructions. Fresh tissue lysate was prepared from snap cryo-frozen liver samples stored in […], and 20 mg liver was homogenized with NAD^+/NADH extraction buffer (400 μL). In order to quickly remove enzymes that may consume NADH, the samples were filtered through a 10 kD molecular weight cut-off filter before detection. […] Concentrations were calculated using an NADH standard curve.

[4] = test system: mammalian cell lines (insulinogenic (MING), neuronlike (LN229), muscle-like (C2C12), and normal hepatocyte (AML12) cells); assay: NAD+ levels in mammalian cell lines treated with NADH, NRH or NMN; details: 1 mM, 3 h; all cell lines
Method: Also, cells were cultured as follows. LN229, Neuro2a, and C2C12 cells were grown in Dulbecco's modified Eagle's medium (DMEM) supplemented with 10% fetal bovine serum (FBS), 100 units/ml penicillin, and 100 μg/ml streptomycin. […] AML12 cells were cultured in a 1:1 mixture of DMEM high glucose/Ham's F-12 with I-glutamine and supplemented with 10% FCS, 15 mM HEPES, 40 ng/ml dexamethasone, 0.005 mg/ml human recombinant insulin, 5 ng/ml sodium selenite and 0.005 mg/ml transferrin (Sigma Aldrich).
The cells were seeded in 6-well plates until they reached approximately 80% confluence. […] The number of cells was counted by hemocytometer and trypan blue. The harvested cells were then pelleted at 3000×g for 3 min. After eliminating the residual medium, the cells were lysed with 7% perchloric acid to preserve NAD+, and then neutralized with NaOH (2 M) and K2HPO4 (500 mM).

AML12 cells = assay: Rescue from hydrogen peroxide (HP) genotoxicity: cell survival and NAD+ level; type: cell-based; details: 3 h
Method: Because the increasing extent of NAD+ concentration is of interest, whether NADH can improve the cell survival rate under the stressful conditions of depletion of NAD+ was also assessed. To that end, as genotoxicity can lead to DNA damage, activate poly(ADP-ribose) polymerases and induce NAD+ depletion, genotoxicity was tested. Strong genotoxicity will lead to severe consumption of NAD+ by cells, resulting in cell death. To test genotoxicity, AML12 cells were treated with 500 μM hydrogen peroxide (HP) for 3 hours in the presence or absence of 1 mM NADH, and then the cells were counted and NAD+ was detected in the samples co-treated with NADH (1 mM) or its vehicle. FIG. 4A is a graph comparing the cell survival rate of the HP treated cells, NADH treated cells, and the HP+NADH treated cells relative to a control. And FIG. 4B is a graph comparing the NAD+ level of the HP treated cells, NADH treated cells, and the HP+NADH treated cells relative to a control. The cell survival rates and cellular NAD+ levels in FIGS. 4A-B are expressed as mean±SD.
The effects of NADH and NMN at a lower concentration (250 μM) on AML12 cells was also tested in a separate assay. Specifically, AML12 cells were treated with 500 μM HP in the presence or absence of 250 μm NADH or NMN for 3 h. FIG. 4C is a graph comparing the cell survival rate of the HP treated cells, HP+NADH treated cells, and the HP+NMN treated cells relative to a control. And FIG. 4D is a graph comparing the NAD+ level of the HP treated cells, HP+NADH treated cells, and the HP+NMN treated cells relative to a control. The cell survival rate and cellular NAD+ levels in FIGS. 4C-D are expressed as mean±SD.

male C57BL/6J mice [5] = assay: Loss of righting reflex (LORR) test; type: in vivo; details: 500 mg/kg intragastric 15 min prior to 8 ml/kg ethanol
Description: Alcohol acts on the central nervous system, causing various behavioral and/or cognitive problems, e.g., loss of righting reflex (LORR). […] LORR is defined as the phenomenon that mice cannot correct themselves three times within 30 seconds after alcohol intake. LORR latency is defined as the time from drinking to occurrence of LORR, and LORR duration is defined as the time from occurrence to recovery of LORR.
Fisher's exact probability test was used to analyze the loss of righting reflex (LORR) in the mice. […] The data representing LORR latency and duration are expressed as mean±SD (n=10); *p<0.05 vs alcohol group.

[6] = 500 μM HP + 250 μM compound, AML12 cells

NC(=O)C1=CN([C@@H]2O[C@H](COP(=O)(O)OP(=O)(O)OC[C@H]3O[C@@H](n4cnc5c(N)ncnc54)C(O)C3O)C(O)C2O)C=CC1 (stereo partly shown) [NADH, nicotinamide adenine dinucleotide (NAD)+hydrogen (H)]
MDA content in the liver (male C57BL/6J mice [1]): significantly reduce
SOD activity in the liver (male C57BL/6J mice [1]): increase
concentration of NAD+ relative to the control group (hepatocyte AML12 cells; 50 μM NADH, 3 h): approximately 4 times
concentration of NAD+ relative to the untreated control group (saturation) (hepatocyte AML12 cells; 500 μM NADH, 3 h): 10 times
time after which full NAD+ increasing effects were present (hepatocyte AML12 cells; 1 mM NADH): 3 h
time at which NAD+ concentration-increasing effects appeared (hepatocyte AML12 cells; 1 mM NADH): 0.5 h
NAD+ after 12 hours of treatment (hepatocyte AML12 cells; 1 mM NADH, 12 h): remained at a high concentration
degree of liver fatty degeneration (Oil Red O) (male C57BL/6J mice [2]): noticeably decreased
ethanol-induced decrease of liver NAD+/NADH redox ratio (male C57BL/6J mice [3]): significantly inhibited this decrease
induced NAD+ levels compared with NMN [4]: much higher than those induced by NMN
effect on NAD+ levels under HP (AML12 cells; [6]): protective effect
effect on cell survival under HP (AML12 cells; [6]): protective effect
NAD+ level in HP co-treated cells (AML12 cells; 500 μM HP + 1 mM NADH, AML12 cells): remained high
cell survival rate under HP+NADH treatment (AML12 cells; 500 μM HP + 1 mM NADH, AML12 cells (HP alone 12%)): ~72%
LORR duration relative to the model group (male C57BL/6J mice [5]): one third
LORR duration vs model group (male C57BL/6J mice [5]): decrease
LORR latency vs model group (male C57BL/6J mice [5]): prolonged
average LORR latency relative to the model group (male C57BL/6J mice [5]): 4 times
share of mice that had a righting reflex after drinking alcohol (male C57BL/6J mice [5]): less than half
LORR rate vs model group (male C57BL/6J mice [5]; model group 100%): decrease
average LORR latency (male C57BL/6J mice [5]; model group 14.76 minutes): 60.24 min
LORR duration (male C57BL/6J mice [5]; model group about 798.68 minutes): 265.00 min
